Laboratory results reported in EP2067771A1, “Derivatives of Dihydroxypyrrolidine as Anti-Cancer Compounds” (EPFL Ecole Polytechnique Fédérale de Lausanne, priority 2007, dated 2009).
Where two headings read alike, the source gives them in different places.

What was measured:
U87 = experiment: Viability assay (CellTiter 96 Aqueous1), cell growth inhibition; assay type: cell-based; conditions: Homo sapiens, U-87 MG
Procedure: (§1) Cell lines and reagents. The tumor cell lines used for the in vitro evaluation of cell growth inhibition by dihydroxypirolidine derivatives were U87 (glioblastoma), PC3 (prostate cancer), A549 (lung carcinoma), MDA-MB231, MCF7, BT474, and SKBR3 (breast cancer). Cells were grown in 10-cm culture dishes with McCoy medium containing 10% fetal calf serum (FCS) and antibiotics at 37°C and 5% CO2. The dihydroxypirolidine derivatives CB161, CB181, and CB183 were weighted and dissolved in DMSO to prepare a stock solution concentrated 100 mM.
(§2) Viability assays. For the viability assays, 5 x 10^4 cells/well were plated in 200 µl medium in 96 well plates. 48 hours later, the dihydroxypirolidine derivatives were added to the wells at concentrations ranging between 10^-2 and 400 µM, such that the vehicle DMSO never exceeded 0.4%. Each drug concentration was tested in duplicate. Viability was determined 72 hours later using CellTiter 96 Aqueous1 (Promega) according to the manufacturer's instructions. Incubation times with CellTiter96 Aqueous1 ranged between 2 and 4 hours. Plates were read with a spectrophotometer (Labsystems iEMS Reader MF) at 490 nm wave length. IC50s were estimated using GraphPad Prism4.

human glioblastoma cells = conditions: S. Favre et al., Heterocycles 2006; cited from earlier work
[1] = system: seven established human tumor cell lines; experiment: Viability assay, panel of seven tumor cell lines; assay type: cell-based; conditions: all the cell lines tested
Procedure: as §1, §2

SKBR3 = experiment: Viability assay (CellTiter 96 Aqueous1), cell growth inhibition; assay type: cell-based; conditions: Homo sapiens, SK-BR-3; SKBR3 (breast cancer), viability 72 hours after addition
Procedure: as §1, §2

PC3 = experiment: as above; assay type: cell-based; conditions: Homo sapiens, PC-3; PC3 (prostate cancer), viability 72 hours after addition
Procedure: as §1, §2

A549 = experiment: as above; assay type: cell-based; conditions: Homo sapiens; A549 (lung carcinoma), viability 72 hours after addition
Procedure: as §1, §2

MCF7 = experiment: as above; assay type: cell-based; conditions: Homo sapiens; MCF7 (breast cancer), viability 72 hours after addition
Procedure: as §1, §2

BT474 = experiment: as above; assay type: cell-based; conditions: Homo sapiens, BT-474; BT474 (breast cancer), viability 72 hours after addition
Procedure: as §1, §2

MDA-MB-231 = experiment: as above; assay type: cell-based; conditions: Homo sapiens; MDA-MB-231 (breast cancer), viability 72 hours after addition
Procedure: as §1, §2

glioblastoma cell growth = conditions: H. Fiaux et al., J. Med. Chem. 2005; cited from earlier work
[2] = refers to Figure 8 (U87 glioblastoma), read-out: IC50s (growth inhibition effects)

With `C=CCOc1ccc([C@H](CO)NC[C@H]2NC[C@H](O)[C@@H]2O)cc1` [CB181, (2R,3R,4S)-2{{{(1R)-2-hydroxy-1-[4-(prop-2-enyloxy)phenyl]ethyl}amino}methyl} pyrrolidine-3,4-diol] as the compound, how does the IC50 (U87; [2]) read?
Its IC50 is greater than 200 µM.

For `OC[C@H](NC[C@H]1NC[C@H](O)[C@@H]1O)c1ccc(-c2ccccc2)cc1` [CB161], which IC50 (U87; [2]) is on record?
Its IC50 is greater than 200 µM.

With `O=C(NC[C@H](NC[C@H]1NC[C@H](O)[C@@H]1O)c1ccccc1)c1cccc(Br)c1` [N-[(2R)-2-({[(2R,3R,4S)-3,4-dihydroxypyrrolidin-2-yl]methyl}amino)-2-phenylethyl]-3-bromobenz-amide] as the compound, how does the “inhibition of human glioblastoma cells” value (human glioblastoma cells) read?
The value was “convincing inhibition”.

Which “potent cytotoxic activity for concentrations” value [1] does the source give for `OC[C@H](NC[C@H]1NC[C@H](O)[C@@H]1O)c1ccc(-c2ccc(C(F)(F)F)cc2)cc1` [CB183, (2R,3R,4S)-2-{{{(1R)-2-hydroxy-1-[4'-(trifluoromethyl)-[1,1'-biphenyl]-4-1]ethyl}amino}methyl}pyrrolidine-3,4-diol] here?
Its value is less than 200 µM.

And the IC50 (SKBR3)?
The IC50 was 48.3 µM.

What about the IC50 (PC3) of the same compound?
Its IC50 is 132 µM.

And the IC50 (A549)?
Its IC50 is 152 µM.

What about the IC50 (MCF7) of the same compound?
Its IC50 is 76.7 µM.

And the IC50 (U87; U87 (glioblastoma), viability 72 hours after addition, read-out: IC50)?
The IC50 was 80 µM.

What about the IC50 (BT474) of the same compound?
The IC50 was 93.3 µM.

What about the IC50 (MDA-MB-231) of the same compound?
The IC50 was 65.8 µM.

Which “inhibitory effect on glioblastoma cell growth” value (glioblastoma cell growth) does the source give for `O[C@H]1[C@H]2[C@H](O)CCCN2C[C@H]1O` [swainsonine] here?
Its value is “only little inhibitory effect”.
